Test results as given in patent publication US6440996B1, “Monomeric and dimeric heterocycles, and therapeutic uses thereof” (priority 1998, dated 2002).
Where two headings read alike, the source gives them in different places.

Tests used:
[1] = target: T1, dopamine transporter (Rattus norvegicus, UniProt P23977); assay: [3H]WIN 35,428 binding to rat striatal membranes / dopamine transporter binding (DAT)
T1 construct: from tissue; P2 synaptosomes for uptake
Description: (§1) Determination of inhibitory binding potencies of analogues at dopamine, serotonin, and norepinephrine transporters are carried out using standard receptor binding assays which are known in the art.
A. Dopamine Transporter Binding (DAT)

[2] = test system: Sprague-Dawley rats; assay: Locomotor activity (distance traveled, stereotypic behavior); format: in vivo
[3] = Drug discrimination, substitution for amphetamine; format: in vivo; conditions: for response rates across test doses: amphetamine discrimination
[4] = Drug discrimination, substitution for cocaine and co-administration with cocaine; format: in vivo
[5] = test system: rats; assay: Intravenous drug self-administration; format: in vivo; conditions: for self-administration responding: i.v., FR10, cocaine 1 mg/kg/infusion, analog 2 0.3-3 mg/kg/infusion, analog 3 0.125-0.5 mg/kg infusion, vs saline extinction
Source text: J. Neurosci., 16, 7416-7427.
Rats were initially trained to lever press for food pellets in standard operant boxes. Following lever press training, rats were implanted with polyvinyl chloride catheters into femoral veins under halothane anesthesia (2-3% in medical grade oxygen) and were allowed to recover for an additional 7 days before initiation of i.v. drug self-administration testing. During drug self-administration sessions, food pellets were no longer delivered, and instead intravenous injections of drugs were delivered by way of the catheter.
Following this second extinction test, self-administration of piperidine analog 2 was studied at doses of 1, 3, and 0.3 mg/kg/infusion in that order. Each dose was tested for five days. During all the re-acquisition test days, a priming infusion was given at the start of the session on each day.

[6] = target: norepinephrine transporter (Rattus norvegicus, UniProt Q9WTR4); assay: Norepinephrine transporter binding (NET)
Chain of norepinephrine transporter (Q9WTR4 1-597): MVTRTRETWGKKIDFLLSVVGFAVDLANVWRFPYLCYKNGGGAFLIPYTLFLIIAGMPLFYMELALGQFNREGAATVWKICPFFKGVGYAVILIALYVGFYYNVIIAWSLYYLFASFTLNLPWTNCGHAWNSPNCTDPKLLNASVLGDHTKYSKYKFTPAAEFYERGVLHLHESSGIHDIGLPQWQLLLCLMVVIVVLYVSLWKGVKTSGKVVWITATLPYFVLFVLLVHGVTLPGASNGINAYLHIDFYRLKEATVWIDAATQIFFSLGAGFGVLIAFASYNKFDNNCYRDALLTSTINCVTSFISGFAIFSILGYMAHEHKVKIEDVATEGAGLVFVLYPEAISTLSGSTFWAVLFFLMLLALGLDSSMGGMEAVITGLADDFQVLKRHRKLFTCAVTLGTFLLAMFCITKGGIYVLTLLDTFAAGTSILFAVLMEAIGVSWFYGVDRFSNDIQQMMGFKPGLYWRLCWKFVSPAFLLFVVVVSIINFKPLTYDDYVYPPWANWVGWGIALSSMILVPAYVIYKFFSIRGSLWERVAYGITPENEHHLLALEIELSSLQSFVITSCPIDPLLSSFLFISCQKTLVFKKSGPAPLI
Description: as §1
C. Norepinephrine Transporter Binding (NET)
J. Med Chem., 36, 2886-2890.

[7] = target: serotonin transporter (Rattus norvegicus, UniProt P31652); assay: Serotonin transporter binding (5-HTT)
Chain of serotonin transporter (P31652 whole entry): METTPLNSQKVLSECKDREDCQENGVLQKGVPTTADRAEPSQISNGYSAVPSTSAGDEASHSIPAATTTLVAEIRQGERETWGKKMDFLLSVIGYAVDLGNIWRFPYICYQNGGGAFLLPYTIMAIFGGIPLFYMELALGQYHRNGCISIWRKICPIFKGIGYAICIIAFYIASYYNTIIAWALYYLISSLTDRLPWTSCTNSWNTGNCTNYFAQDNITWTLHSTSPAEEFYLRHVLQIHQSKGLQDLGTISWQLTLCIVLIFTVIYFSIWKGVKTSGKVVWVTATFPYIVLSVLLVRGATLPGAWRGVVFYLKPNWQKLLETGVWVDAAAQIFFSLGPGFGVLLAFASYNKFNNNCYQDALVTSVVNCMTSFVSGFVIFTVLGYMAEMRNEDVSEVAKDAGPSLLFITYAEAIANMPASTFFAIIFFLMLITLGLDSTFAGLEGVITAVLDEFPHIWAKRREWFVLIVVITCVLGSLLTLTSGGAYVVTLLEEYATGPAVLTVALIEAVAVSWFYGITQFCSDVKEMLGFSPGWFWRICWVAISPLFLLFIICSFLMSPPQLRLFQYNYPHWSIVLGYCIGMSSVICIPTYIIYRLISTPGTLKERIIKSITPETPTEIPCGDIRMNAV
Description: as §1
B. Serotonin Transporter Binding (5-HTT)
Mol. Pharmacol., 39, 339.

[8] = target: striatal dopamine transporter (Macaca mulatta, UniProt Q7JHP9); assay: PET evaluation of 11C-labeled isomers
Chain of striatal dopamine transporter (Q7JHP9 1-620): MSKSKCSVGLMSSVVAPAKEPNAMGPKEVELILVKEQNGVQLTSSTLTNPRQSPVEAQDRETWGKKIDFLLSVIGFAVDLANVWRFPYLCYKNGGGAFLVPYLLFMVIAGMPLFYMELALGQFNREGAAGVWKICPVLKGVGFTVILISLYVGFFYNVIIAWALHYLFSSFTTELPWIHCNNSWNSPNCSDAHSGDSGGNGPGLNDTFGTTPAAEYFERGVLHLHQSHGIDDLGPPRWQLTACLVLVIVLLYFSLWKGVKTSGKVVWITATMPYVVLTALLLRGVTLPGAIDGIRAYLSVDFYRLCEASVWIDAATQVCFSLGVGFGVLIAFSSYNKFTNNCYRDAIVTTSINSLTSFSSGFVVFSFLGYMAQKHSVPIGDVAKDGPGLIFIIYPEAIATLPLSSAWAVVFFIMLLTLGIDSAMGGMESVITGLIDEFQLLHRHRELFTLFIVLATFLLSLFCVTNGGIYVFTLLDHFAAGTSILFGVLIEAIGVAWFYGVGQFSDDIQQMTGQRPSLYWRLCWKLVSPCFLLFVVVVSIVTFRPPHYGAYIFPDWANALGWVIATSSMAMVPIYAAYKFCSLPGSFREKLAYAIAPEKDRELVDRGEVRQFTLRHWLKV
Description: The products were purified by HPLC on a C-18 cartridge eluted with MeOH: phosphate/triethylamine buffer, pH 7.2 (60:40).
After passage through a 0.22 μm filter, the sterile products were administered to three Rhesus monkeys and dynamic PET images were acquired over 90 minutes.

[9] = target: T1, dopamine transporter; assay: Inhibition of high-affinity [3H]dopamine uptake into rat striatal nerve endings (synaptosomes); format: biochemical
Description: A. [^3H]Dopamine Uptake Studies
The effect of candidate compounds in antagonizing dopamine high-affinity uptake was determined using a method previously employed. For [^3H]DA uptake, dissected rat striata were homogenized with a Teflon-glass pestle in ice-cold 0.32 M sucrose and centrifuged for 10 min at 1000×g. The supernatant was centrifuged at 17,500×g for 20 min. This P2 synaptosomal pellet was resuspended in 30 volumes of ice-cold modified KRH buffer. An aliquot of the synaptosomal suspension was preincubated with the buffer and drug for 30 min at 37° C., and uptake initiated by the addition of [^3H]dopamine (5 nM, final concentration). After 5 min, uptake was terminated by adding 5 mL of cold buffer containing glucosamine as a substitute for NaCl and then finally by rapid vacuum filtration over GF-C glass fiber filters, followed by washing with two 5 mL volumes of ice-cold, sodium-free buffer. Radioactivity retained on the filters was determined by liquid scintillation spectrometry. […] It is identical to that calculated by subtracting the mean of identical tubes incubated at 0° C.

[10] = test system: dopamine transporter; conditions: cited from earlier work; for protection from the effect of 10 mM N-ethylmaleimide: 10 μM cocaine, 300 μM dopamine, d-amphetamine

T1 sequence (P23977 whole entry): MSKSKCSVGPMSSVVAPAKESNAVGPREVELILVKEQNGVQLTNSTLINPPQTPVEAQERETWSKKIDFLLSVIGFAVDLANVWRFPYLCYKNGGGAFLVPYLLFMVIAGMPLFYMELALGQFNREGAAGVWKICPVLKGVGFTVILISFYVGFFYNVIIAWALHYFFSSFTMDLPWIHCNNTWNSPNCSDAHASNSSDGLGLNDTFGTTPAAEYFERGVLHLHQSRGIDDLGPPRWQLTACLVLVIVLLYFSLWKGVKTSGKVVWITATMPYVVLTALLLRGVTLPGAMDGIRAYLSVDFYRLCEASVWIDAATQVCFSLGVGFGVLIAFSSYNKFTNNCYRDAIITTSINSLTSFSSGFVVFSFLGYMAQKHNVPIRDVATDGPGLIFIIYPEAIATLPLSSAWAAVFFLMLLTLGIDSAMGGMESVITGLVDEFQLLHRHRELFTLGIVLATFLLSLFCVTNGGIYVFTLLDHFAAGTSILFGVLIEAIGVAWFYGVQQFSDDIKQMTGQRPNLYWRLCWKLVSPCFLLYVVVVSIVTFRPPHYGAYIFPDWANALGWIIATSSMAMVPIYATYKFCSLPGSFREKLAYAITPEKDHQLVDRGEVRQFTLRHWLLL

In the case of `COC(=O)[C@@H]1CN(C)CC[C@H]1c1ccc(Cl)cc1` (racemic) [Compound 2, (±)-trans-Methyl 4-(4-Chlorophenyl)-1-methylpiperidine-3-carboxylate], the IC50 ([1]; DAT IC50 (nm), Table 2) is reported as 196 nM, the IC50 ([1]; IC50 (nM) [3H]WIN 35,428 binding, rat striatal membranes, Table 1) is reported as 197 ± 7.9 nM and the “time course of stereotypic response” value ([2]; 90 minutes following the drug injection) is reported as “persistent at 90 minutes”. For the same compound, the distance traveled ([2]; i.p., cocaine 10 mg/kg, analog 2 3-20 mg/kg, vs saline control) was “did not alter”, the “stereotypic behavior / stereotypic time” value ([2]; i.p., cocaine 10 mg/kg, analog 2 10 and 20 mg/kg) was “small, statistically nonsignificant increase” and the “response rates across test doses” value [3] was “remained fairly stable”. For the same compound, the maximum amphetamine-lever responding ([3]; substitution tests) was 53%, the “drug choice and response rate performance on co-administration with cocaine” value ([4]; analog 2 10 mg/kg plus cocaine 1.25 and 5 mg/kg, vs cocaine alone) was “did not significantly alter” and the “response rates compared with cocaine (10 mg/kg)” value ([4]; analog 2 5 and 10 mg/kg) was “substantially lower”. The maximum cocaine-lever responding ([4]; analog 2 5 and 20 mg/kg) was 40%, the “number of infusions delivered vs saline extinction test” value ([5]; analog 2, all doses tested) was “not significantly different” and the self-administration responding [5] was “failed to restore”.

`COC(=O)[C@@H]1CN(C)CC[C@@H]1c1ccc2ccccc2c1` (racemic) [Compound 74, (±)-Methyl 4β-(2-Naphthyl)-1-methylpiperidine-3β-carboxylate] showed an IC50 ([1]; DAT IC50 (nm), Table 2) of 13 nM, an IC50 [6] of 2.57 µM and an IC50 ([7]; 5-HTT IC50 (nm), Table 2) of 0.107 µM. The melting point was 100 to 101 °C.

Work on `COC(=O)C1CN(C)CCC1c1ccc(Br)cc1` (single isomer, unassigned; (+)) [Compound 69, (+)-Methyl 4β-(4-Bromophenyl)-1-methylpiperidine-3β-carboxylate] yielded an IC50 ([1]; DAT IC50 (nm), Table 2) of 406 nM, an IC50 [6] of 21.6 µM and an IC50 ([7]; 5-HTT IC50 (nm), Table 2) of 4.13 µM. It also gave a melting point of 125 to 126 °C.

Work on `COC(=O)C1CN(CCCc2ccccc2)CCC1c1ccc(Cl)cc1` (single isomer, unassigned; (-)) [Compound 48, (−)-Methyl 4β-(4-Chlorophenyl)-1-(3-phenylpropyl)-piperidine-3β-carboxylate] yielded an IC50 ([1]; DAT IC50 (nm), Table 2) of 157 nM, an IC50 [6] of 1.15 µM and an IC50 [7] of 73.2 µM. It also gave a melting point of 73 to 75 °C.

In the case of `COC(=O)C1CN(C)CCC1c1ccc(Cl)cc1` (single isomer, unassigned; isomer 4) [cis isomer, 4-(4-chlorophenyl)-3-carbomethoxy-N-methylpiperidine], the “brain accumulation of 11C-labeled tracer (PET)” value ([8]; dynamic PET over 90 minutes) is reported as “greater nonspecific accumulation in the cortex”.

Compound `COC(=O)[C@@H]1CN(C)CC[C@@H]1c1ccc(Cl)cc1` [Compound 3, (−)-Methyl 4β-(4-Chlorophenyl)-1-methylpiperidine-3β-carboxylate] has an IC50 ([1]; Table 2, read-out: DAT IC50 (nm)) of 25 nM, an IC50 ([1]; rat striatal membranes, Table 1, read-out: IC50 (nM) [3H]WIN 35,428 binding) of 24.8 ± 1.6 nM and an IC50 ([9]; Table 2, unit inferred, read-out: Dopamine Uptake) of 85 nM. The IC50 ([9]; rat striatal synaptosomes, Table 1, read-out: IC50 (nM) [3H]dopamine uptake) was 85.2 ± 2.6 nM, the IC50 [6] was 1.63 µM and the self-administration responding [5] was “reliably self-administered”.

For `CCN1C(=O)C=CC1=O` [N-Ethyhmaleimide], the “inhibition of the specific binding of [3H]mazindol” value ([10]; background) is given as “about 95%”.

With `CC(N)Cc1ccccc1` (stereo not shown) [amphetamine, reference compound] the “response rates across test doses” value [3] was “remained fairly stable” and the “substitution for the discriminative stimulus effects of amphetamine” value ([3]; substitution tests) was “dose-dependent and complete substitution”.

For `C[C@H](N)Cc1ccccc1` [d-amphetamine], the “protection from the effect of 10 mM N-ethylmaleimide” value [10] is listed as “neither 300 μM dopamine nor d-amphetamine afforded any significant protection”.

In the case of `NCCc1ccc(O)c(O)c1` [dopamine], the “protection from the effect of 10 mM N-ethylmaleimide” value [10] is given as “neither 300 μM dopamine nor d-amphetamine afforded any significant protection”.

With `COC(=O)C1CN(C)CCC1c1ccc(Cl)cc1` (stereo not drawn) [trans isomers, 4-(4-chlorophenyl)-3-carbomethoxy-N-methylpiperidine] the “striatal activity after unlabeled CFT” value ([8]; CFT given 60 minutes after injection) was “selective decrease in the striatal activity”.
